Values of other authors in article PMC11956011, “An Amazing 30-Year Journey around the DABO Family: A Medicinal Chemistry Lesson on a Versatile Class of Non-nucleoside HIV-1 Reverse Transcriptase Inhibitors” (Journal of Medicinal Chemistry, 2025).
Values belong to the compound of their own block, whether it stands above or below them.

Key:
[1] = test system: HIV-1 RT (WT, recombinant); conditions: Fig 4
P236L HIV-1 RT = test system: P236L HIV-1 RT; set-up: method as in PMID 9748354, PMID 9554867
Y181C HIV-1 RT = test system: Y181C HIV-1 RT; set-up: method as in PMID 9748354, PMID 9554867
E233V HIV-1 RT = test system: E233V HIV-1 RT; set-up: method as in PMID 9748354, PMID 9554867
Y188H HIV-1 RT = test system: Y188H HIV-1 RT; set-up: method as in PMID 9748354, PMID 9554867
HIV-1 IIIB = test system: HIV-1 IIIB; set-up: method as in PMID 9748354, PMID 9554867; conditions: read-out: p24 inhibition in MT-4 infected cells, IC90: IIIB
DLV-R-MF (P236L) = test system: DLV-R-MF (P236L); set-up: method as in PMID 9748354, PMID 9554867; conditions: read-out: p24 inhibition in MT-4 infected cells, IC90: DLV-R-MF (P236L)
L-697661-R-IIIB (Y181C) = test system: L-697661-R-IIIB (Y181C); set-up: method as in PMID 9748354, PMID 9554867; conditions: read-out: p24 inhibition in MT-4 infected cells, IC90: L-697661-R-IIIB (Y181C)
DLV-R-IIIB (L100I) = test system: DLV-R-IIIB (L100I); set-up: method as in PMID 9748354, PMID 9554867; conditions: read-out: p24 inhibition in MT-4 infected cells, IC90: DLV-R-IIIB (L100I)
R88703-R-IIIB (Y181C) = test system: R88703-R-IIIB (Y181C); set-up: method as in PMID 9748354, PMID 9554867; conditions: read-out: p24 inhibition in MT-4 infected cells, IC90: R88703-R-IIIB (Y181C)
V106A HIV-1 RT = conditions: Fig 4
HIV-1 = test system: HIV-1; set-up: method as in PMID 5787520; conditions: 3.5 μM; MoI = 5 CCID50/cell; 40 days
[2] = test system: E138K HIV-1 mutant strain; conditions: Fig 12, in brackets
[3] = set-up: method as in doi:10.1039/c3md00247k, PMID 21752202; conditions: in vivo
[4] = set-up: method as in doi:10.1039/c3md00247k; conditions: mouse models

SMILES: C[C@H](Sc1nc(N)cc(Cl)n1)c1cc2ccoc2cn1 [compound 21, (−)-6-chloro-2-[(1-furo[2,3-c]pyridin-5-ylethyl)thio]-4-pyrimidinamine]
IC50 ([1]; read-out: RT assay, IC50: WT): 20 nM
IC50 (L100I HIV-1 RT): 39 nM
IC50 (P236L HIV-1 RT): 22 nM
IC50 (Y181C HIV-1 RT): 179 nM
IC50 (E233V HIV-1 RT): 17 nM
IC50 (Y188H HIV-1 RT): 77 nM
IC90 (HIV-1 IIIB): 1 nM
IC90 (DLV-R-MF (P236L)): 8 nM
IC90 (L-697661-R-IIIB (Y181C)): 1100 nM
IC90 (DLV-R-IIIB (L100I)): 70 nM
IC90 (R88703-R-IIIB (Y181C)): 170 nM

SMILES: O=c1cc(Cc2ccccc2)nc(NCCCCO)[nH]1 [compound 23, 6-benzyl-N^2-(4-hydroxybutyl)isocytosine]
Ki [1]: 140000 nM
Ki (L100I HIV-1 RT; Fig 4): 525000 nM
Ki (V106A HIV-1 RT): 75000 nM

EC50 (HIV-2ROD): 8600 nM
SMILES: CCCN(C)c1nc(C(C)c2c(F)cccc2F)c(C)c(=O)[nH]1 (centres unmarked) [compound 119]

SMILES: Cc1c(C(C)c2c(F)cccc2F)nc(N(C)C)[nH]c1=O (racemic) [compound 116]
water solubility (in words): scant water solubility
HIV-1 replication in acutely infected cultures after 4 h treatment (HIV-1): totally suppressed HIV-1 replication

SMILES: Cc1c(C(C#N)c2c(F)cccc2F)nc(SC(C)C)[nH]c1=O (centres unmarked) [compound 153]
Fold-resistance E138K (EC50 vs HIV-1IIIB) [2]: 2.4
acute toxicity (in words) [3]: without acute toxicity
oral bioavailability (in words) [4]: optimal oral bioavailability
